Test results taken from patent publication US20030134774A1, “Methods for inhibiting cardiac disorders” (priority 2001, published 2003).

Experiments:
[1] = tested on: ERK1/2 in cardiac fibroblasts; experiment: Phospho-ERK1/2 Western blot in cardiac fibroblasts; type: cell-based, rat; details: AG1478 2 μM
Description: (§1) rPMT transactivation of the EGF receptor in cardiac fibroblasts, but not cardiomyocytes. Neonatal rat cardiomyocytes (Panel A) and cardiac fibroblasts (Panel B) were treated with rPMT (400 ng/ml) for 24 hr or EGF (50 ng/ml) for 5 min without or with AG1478 (2 μM, starting 30 min prior to stimulation). Cell lysates were subjected to SDS-PAGE followed by Western blotting with the anti-phospho-ERK1/2 antibody. Data are from a representative gel, with similar results obtained in 3 separate experiments.
Cardiac myocytes were dissociated from the ventricles of two-day-old Wistar rats by a trypsin digestion protocol which incorporates a differential attachment procedure to enrich for cardiac myocytes, as described previously (13). For some experiments, attached cells were maintained as fibroblast cultures. For studies of inositol phosphates, MAPKs, AKT, and PKC cardiomyocytes were plated at a density of 5×10^5 cells per ml (2 ml per 35-mm dish; 1 ml per 22.1-mm dish) and were cultured in MEM supplemented with 10% fetal calf serum. […]
(§2) Specific immunoreactivity for individual PKC isoforms was quantified according to methods described previously. […] Bands were detected by enhanced chemiluminescence and blots were quantified by laser scanning densitometry.

ERK1/2 = experiment: Phospho-ERK1/2 Western blot in cardiomyocytes; type: cell-based, rat; details: cardiomyocytes; for effect on ERK phosphorylation/activation by rPMT: rPMT 400 ng/ml 24 hr
Description: (§3) rPMT promotes the activation of ERK1/2, JNK and p38-MAPK cascades. Incubations were for 24 hr in the presence of the indicated concentrations of rPMT. PMA (100 nM, 5 min) and sorbitol ([…], 5 min) were included as positive controls. Cell lysates were subjected to SDS-PAGE followed by Western blotting as described in Methods below. Phosphorylated forms of ERK1/2 (A), p38 MAP kinase (B) or JNK (C) were detected by specific anti-phospho-ERK1/2, -p38 MAP kinase or -JNK antibodies, respectively. Blots were stripped and subjected to immunoblot analysis with total ERK1/2 or p38 MAP kinase to normalize for minor variations in protein loading (Panels A and B). Top: representative autoradiograms (with each lane from a single gel exposed for the same duration). Bottom: quantification of each series of experiments (n=3).
as §1
Specific immunoreactivity for individual PKC isoforms was quantified according to methods described previously. For assays of MAPKs and AKT, cells were exposed to test agents as indicated in individual experimental protocols, washed three times with ice-cold calcium/magnesium-free Dulbecco's PBS (pH 7.1), scraped into ice-cold extraction buffer [20 mM β-glycerophosphate pH 7.5, 20 mM sodium fluoride, 2 mM EDTA, 0.2 mM sodium vanadate, 10 μg/ml aprotinin, 25 μg/ml leupeptin, 50 μg/ml PMSF, and 0.3% (v/v) β-mercaptoethanol], lysed by sonication, and centrifuged at 10,000 g for 10 min at 4° C. […] Bands were detected by enhanced chemiluminescence and blots were quantified by laser scanning densitometry.

PKC-ε = target: T1, PKC-ε (Rattus norvegicus, UniProt P09216); experiment: Western blot with anti-phospho-PKC antibody in cardiomyocytes; type: cell-based; details: for PKC-ε phosphorylation/activation (phospho-PKC band pattern): NE 10 μM or PMA 100 nM for 5 min
T1 construct: PKCε is detected as a single band in quiescent cardiomyocytes; endogenous in cells; host or cells: cultured neonatal rat ventricular cardiomyocytes
T1 sequence (P09216 1-737): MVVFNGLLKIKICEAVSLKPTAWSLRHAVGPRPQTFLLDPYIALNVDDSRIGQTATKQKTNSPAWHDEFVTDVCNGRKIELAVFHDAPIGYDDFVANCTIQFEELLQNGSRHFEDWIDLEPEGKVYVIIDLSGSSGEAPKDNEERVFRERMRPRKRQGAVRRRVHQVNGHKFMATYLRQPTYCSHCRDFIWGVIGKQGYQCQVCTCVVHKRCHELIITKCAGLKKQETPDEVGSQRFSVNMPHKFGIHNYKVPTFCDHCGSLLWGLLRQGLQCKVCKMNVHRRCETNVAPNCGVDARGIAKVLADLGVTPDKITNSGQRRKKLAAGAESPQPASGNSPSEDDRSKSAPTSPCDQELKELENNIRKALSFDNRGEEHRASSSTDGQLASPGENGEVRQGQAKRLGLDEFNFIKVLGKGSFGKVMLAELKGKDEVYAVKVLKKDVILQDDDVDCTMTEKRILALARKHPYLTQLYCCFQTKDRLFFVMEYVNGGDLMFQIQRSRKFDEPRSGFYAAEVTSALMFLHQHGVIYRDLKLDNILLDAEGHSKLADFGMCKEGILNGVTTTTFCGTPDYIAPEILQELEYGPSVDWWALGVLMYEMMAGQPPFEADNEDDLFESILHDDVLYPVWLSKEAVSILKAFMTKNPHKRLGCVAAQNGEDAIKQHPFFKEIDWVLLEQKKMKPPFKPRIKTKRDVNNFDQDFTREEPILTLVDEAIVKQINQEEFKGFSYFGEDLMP
Description: (§4) rPMT selectively activates nPKC isoforms. Cardiomyocyte cultures were incubated in culture medium without or with NE (10 μM), rPMT (400 ng/ml) or PMA (100 nM) for 24 hr (Panels A and C) or 5 min (Panel B). Soluble extracts were prepared and separated by SDS-PAGE followed by immunodetection of total PKC isoform abundance with antibodies that are specific for the individual PKC isoforms (Panel A), or phosphorylated forms of PKC (largely PKCε) with a pan-phospho-PKC antibody (Panels B and C), as described in Methods below. GF109203 was included at 5 μM 30 min prior to stimulation as indicated.
(§5) Specific immunoreactivity for individual PKC isoforms was quantified according to methods described previously. For assays of MAPKs and AKT, cells were exposed to test agents as indicated in individual experimental protocols, washed three times with ice-cold calcium/magnesium-free Dulbecco's PBS (pH 7.1), scraped into ice-cold extraction buffer [20 mM β-glycerophosphate pH 7.5, 20 mM sodium fluoride, 2 mM EDTA, 0.2 mM sodium vanadate, 10 μg/ml aprotinin, 25 μg/ml leupeptin, 50 μg/ml PMSF, and 0.3% (v/v) β-mercaptoethanol], lysed by sonication, and centrifuged at 10,000 g for 10 min at 4° C. The supernatant was diluted in SDS-PAGE sample buffer, boiled for 5 min, and stored at −70° C. Western blot analysis was performed with antibodies that are selective for the phosphorylated (activated) forms of ERK1/2, p38-MAPK, JNK, AKT, and pan-PKC according to manufacturer's instructions. For each panel in each Figure, the results are from a single gel exposed for a uniform duration. Bands were detected by enhanced chemiluminescence and blots were quantified by laser scanning densitometry.

PKC isoforms = experiment: Immunoblot of PKC isoform partitioning and down-regulation in cardiomyocytes; type: cell-based, rat; details: 24 hr experiments
Description: as §4, with “Cardiomyocyte cultures were incubated in culture medium without or with NE (10 μM), rPMT (400 ng/ml) or PMA (100 nM) for 24 hr (Panels A and C) or 5 min (Panel B).” left out
(§6) Cells were maintained in culture in the presence of 10% FCS for 96 hr and then switched to serum-free medium for 24 hr prior to the addition of agonists as indicated. For PKC, extracts were prepared and subjected to SDS-PAGE to resolve individual isoforms according to methods described previously (14).
as §2

AKT = experiment: Phospho-AKT and total AKT Western blot in cardiomyocytes; type: cell-based, rat; details: for basal AKT phosphorylation after acute treatment: PMA 100 nM, NE 10 μM
Description: rPMT decreases basal AKT phosphorylation and prevents its phosphorylation by EGF. Neonatal rat cardiomyocytes were treated with rPMT (400 ng/ml) for 24 hr (Panel A), 48 hr (Panel B) or with EGF (50 ng/ml) for 5 min. Cell lysates were subjected to SDS-PAGE followed by Western blotting with antibodies that recognize the phosphorylated form or total AKT. Data are from representative gels, with similar results obtained in 3 separate experiments.
Panel A: Cells were treated with norepinephrine (NE, 10 μM) or PMA (100 nM) for 5 min without or with GF109203 (5 μM).
Panel B: Cells were treated with rPMT (400 ng/ml), NE (10 μM) or PMA (100 nM) for 24 hr without or with Go6983 (5 μM). […] Cell lysates were subjected to SDS-PAGE followed by Western blotting using a specific anti-phospho-AKT antibody. Data are from representative gels, with similar results obtained in 3 separate culture preparations.
as §5

PKCδ and PKCε = experiment: Immunoblot of nPKC isoform abundance in cardiomyocytes; type: cell-based, rat; details: 24 hr stimulation
Description: as §4, §6, §2

cardiomyocytes [2] = experiment: Cardiomyocyte growth: sarcomeric organization and cell size; type: cell-based, rat; details: rPMT 400 ng/ml or NE 10 μM, 48 hr, serum-free
Description: (§7) rPMT mimics the effect of norepinephrine to promote cardiomyocyte hypertrophy. Cardiomyocytes were cultured in serum-free medium without or with rPMT (400 ng/ml) or norepinephrine (NE, 10 μM) for 48 hr. Cardiomyocytes were fixed, permeabilized, and stained with monoclonal anti-α-actinin sarcomeric (Panel A, magnification×100) or subjected to Northern blot analysis for measurements of steady-state ANF mRNA expression (Panel B). Effects of rPMT (black bars) and NE (gray bars) vs. vehicle (white bars) on sarcomeric organization (Panel C), cell size (Panel D), and protein synthesis (Panel E) are illustrated (n=3 for each).
Cardiomyocyte growth was assessed by measuring cell surface area by digitized image analysis. For each experimental point, 7-10 frames/dish were recorded at 40× magnification with a video camera attached to a Nikon microscope which was calibrated with a micrometer.
Cardiomyocytes were grown on slides precoated with fibronectin. After treatment, cells were fixed with cold methanol and permeabilized with 0.1% Triton X-100 and 0.2% BSA. Cells were incubated with α-actinin monoclonal antibody overnight at 4° C. followed by anti-mouse IgG-Cy3-labeled antibody for 30 min at room temperature. Fluorescence microscopy images were obtained at 100× magnification.

cardiomyocytes [3] = experiment: Protein synthesis ([3H]phenylalanine incorporation) in cardiomyocytes; type: cell-based, rat; details: rPMT 400 ng/ml or NE 10 μM, 48 hr, serum-free
Description: as §7
As a second index of cardiomyocyte growth, relative rates of protein synthesis were measured as radiolabeled phenylalanine incorporation into cell protein. Cells were stimulated in serum-free medium with agonists (or vehicle as control) for 48 hr at 37° C. The medium was replaced with serum-free medium containing [^3H]phenylalanine (0.1 μCi/ml) and non-radioactive phenylalanine (0.3 mM, to minimize variations in the specific activity of the precursor pool responsible for protein synthesis) during the final 24 hr of stimulation. Cells were rinsed with PBS and incubated in 10% trichloroacetic acid for 30 min on ice. […] Aliquots of the SDS-soluble protein were counted in 5 ml of scintillant.

PKCα and PKCλ = experiment: Immunoblot of PKCα/PKCλ abundance and distribution in cardiomyocytes; type: cell-based, rat; details: 24 hr stimulation
Description: as §4, §6, §2

ANF mRNA = experiment: Northern blot analysis of ANF mRNA in cardiomyocytes; type: cell-based, rat; details: rPMT 400 ng/ml or NE 10 μM, 48 hr, serum-free
Description: as §7
Total RNA from neonatal rat cardiomyocytes were isolated by using a Qiagen kit according to manufacturer's instructions. A rat ANF cDNA probe (˜600 bp) was labeled with [^32P]dCTP. 10 μ/g of total RNA was separated on a 1% agarose gel and transferred to a nylon membrane (Amersham). Prehybridization and hybridization were performed according to standard methods. Normalization of signals was performed with a glyceraldehyde-3-phosphate dehydrogenase probe. Signals were detected by Phosphorimage analysis.

p38-MAPK = experiment: Phospho-p38 MAP kinase Western blot in cardiomyocytes; type: cell-based, rat; details: rPMT 24 hr; sorbitol 5 min positive control
Description: as §3, §2

JNK = experiment: Phospho-JNK Western blot in cardiomyocytes; type: cell-based, rat; details: rPMT 24 hr; sorbitol 5 min positive control
Description: as §3, §2

Molecule: COc1cc2ncnc(Nc3cccc(Cl)c3)c2cc1OC [AG1478, reference compound]
- effect on ERK activation by EGF [1]: marked effect to prevent ERK activation
- effect on ERK activation by rPMT [1]: marked effect to prevent ERK activation
- effect on EGF receptor-mediated ERK phosphorylation (ERK1/2; AG1478 2 μM, EGF 50 ng/ml 5 min): effectively blocks
- effect on ERK phosphorylation/activation by rPMT (ERK1/2): only a very minor reduction

Molecule: CN(C)CCCn1cc(C2=C(c3c[nH]c4ccccc34)C(=O)NC2=O)c2ccccc21 [GF109203, reference compound]
- effect on appearance of the more highly phosphorylated PKC-ε band induced by NE or PMA (PKC-ε; inhibitor 5 μM, 30 min prior to stimulation): prevented
- inhibition of PMA-dependent down-regulation of PKC isoforms (PKC isoforms): did not
- effect on ERK phosphorylation/activation by rPMT (ERK1/2): markedly inhibited
- effect on inhibitory modulation of AKT phosphorylation by PMA (AKT; GF109203 5 μM, 5 min PMA): prevented

Molecule: COc1ccc2c(c1)c(C1=C(c3c[nH]c4ccccc34)C(=O)NC1=O)cn2CCCN(C)C [Go6983, reference compound]
- inhibition of PMA-dependent down-regulation of PKC isoforms (PKC isoforms): completely inhibited
- effect on negative regulation of AKT by rPMT (AKT; Go6983 5 μM, 24 hr): abrogates

Molecule: NC[C@H](O)c1ccc(O)c(O)c1 [NE, norepinephrine, reference compound]
- abundance of PKCδ and PKCε in the soluble fraction (PKCδ and PKCε): significantly reduce
- PKC-ε phosphorylation/activation (phospho-PKC band pattern) (PKC-ε): slower mobility, more-highly phosphorylated species
- cell size (cellular enlargement) (cardiomyocytes [2]): induce marked cellular enlargement
- myofibrillar (sarcomeric) organization (cardiomyocytes [2]): promote myofibrillar organization
- [3H]phenylalanine incorporation (protein synthesis) (cardiomyocytes [3]): enhance [^3H]phenylalanine incorporation
- abundance and subcellular distribution of PKCα and PKCλ (PKCα and PKCλ): is not altered
- ANF mRNA expression (ANF mRNA): induce ANF mRNA expression
- basal AKT phosphorylation after acute treatment (AKT; 5 min): not

Molecule: CCCCCCCCCCCCCC(=O)O[C@@H]1[C@@H](C)[C@@]2(O)[C@@H](C=C(CO)C[C@]3(O)C(=O)C(C)=C[C@@H]23)[C@@H]2C(C)(C)[C@]12OC(C)=O [PMA, reference compound]
- phospho-PKC immunoreactivity during pharmacologic down-regulation (PKC-ε; 24 hrs): drastically reduced
- PKC-ε phosphorylation/activation (phospho-PKC band pattern) (PKC-ε): slower mobility, more-highly phosphorylated species
- basal AKT phosphorylation after acute treatment (AKT; 5 min): reduce basal AKT phosphorylation
- basal AKT phosphorylation after 24 hr treatment (AKT; 24 hr, relative to control cultures): reduced

Molecule: OC[C@@H](O)[C@@H](O)[C@H](O)[C@@H](O)CO [sorbitol, reference compound]
- magnitude of p38-MAPK activation (p38-MAPK): strong activation
- magnitude of JNK activation (JNK): strong activation

Molecule: EGF: epidermal growth factor
- AKT activation in control cultures (AKT; EGF 50 ng/ml, 5 min): robust
